Experiments:
[1] = biological target: T1, Recombinant human c-Cbl (aa 47-435) (Homo sapiens, UniProt P22681); experiment: c-Cbl Biochemical Assay (TR-FRET); conditions: hc-Cbl Biochemical Assay (TR-FRET); read-out: TR-FRET hcCbl IC50
T1 sequence (P22681 47-435): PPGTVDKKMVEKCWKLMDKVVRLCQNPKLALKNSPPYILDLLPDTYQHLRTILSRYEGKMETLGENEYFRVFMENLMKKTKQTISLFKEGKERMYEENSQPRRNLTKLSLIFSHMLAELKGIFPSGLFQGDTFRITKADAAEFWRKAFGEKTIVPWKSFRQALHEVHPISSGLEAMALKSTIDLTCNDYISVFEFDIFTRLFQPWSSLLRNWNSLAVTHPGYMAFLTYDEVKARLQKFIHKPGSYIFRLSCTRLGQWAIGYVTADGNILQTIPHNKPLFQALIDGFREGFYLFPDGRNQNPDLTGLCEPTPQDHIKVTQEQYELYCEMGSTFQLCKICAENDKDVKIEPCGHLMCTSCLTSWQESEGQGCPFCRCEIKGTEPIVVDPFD

[2] = biological target: Recombinant human Cbl-b (aa 36-427) (Homo sapiens, UniProt Q13191); experiment: Cbl-b Biochemical Assay (TR-FRET); conditions: read-out: TR-FRET hCbl-b IC50
Chain of Recombinant human Cbl-b (aa 36-427) (Q13191 36-427): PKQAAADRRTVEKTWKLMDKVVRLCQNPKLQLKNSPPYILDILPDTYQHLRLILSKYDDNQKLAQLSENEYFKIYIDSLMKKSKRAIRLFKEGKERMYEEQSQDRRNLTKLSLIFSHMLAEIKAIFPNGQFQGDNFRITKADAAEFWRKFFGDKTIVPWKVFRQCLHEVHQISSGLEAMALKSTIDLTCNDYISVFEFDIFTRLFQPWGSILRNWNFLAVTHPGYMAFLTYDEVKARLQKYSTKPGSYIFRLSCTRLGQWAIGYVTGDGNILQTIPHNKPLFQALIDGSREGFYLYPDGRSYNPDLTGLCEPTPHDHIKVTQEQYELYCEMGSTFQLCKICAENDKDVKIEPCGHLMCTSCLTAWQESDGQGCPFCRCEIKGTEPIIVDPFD

[3] = system: Jurkat (clone E6-1) cells with NFAT luciferase reporter; experiment: Jurkat reporter assay (NFAT Luciferase); type: cell-based; conditions: Homo sapiens; Jurkat NFAT luciferase reporter cells, anti-CD3 stimulation, 6 hr; read-out: Jurkat NFAT EC50

Row | SMILES | IC50 [1] | IC50 [2] | EC50 [3]
1 | Cn1cnnc1-c1cc(F)ccc1-c1cccc(-c2nc3cc(CNCC4(C#N)CCOCC4)cc(C(F)(F)F)c3[nH]2)c1 [CT-2, 4-((((2-(4′-Fluoro-2′-(4-methyl-4H-1,2,4-triazol-3-yl)-[1,1′-biphenyl]-3-yl)-7-(trifluoromethyl)-1H-benzo[d]imidazol-5-yl)methyl)amino)methyl)tetrahydro-2H-pyran-4-carbonitrile] | 0.2 to 1 µM | < 0.2 µM | 0.2 to 1 µM
2 | Cn1cnnc1-c1cc(F)ccc1-c1cccc(-c2nc3cc(CNC[C@@H]4CCC(=O)N4)cc(C(F)(F)F)c3o2)c1 [CU-2, (S)-5-((((2-(4′-Fluoro-2′-(4-methyl-4H-1,2,4-triazol-3-yl)-[1,1′-biphenyl]-3-yl)-7-(trifluoromethyl)benzo[d]oxazol-5-yl)methyl)amino)methyl)pyrrolidin-2-one] | < 0.2 µM | < 0.2 µM | 0.2 to 1 µM
3 | Cn1cnnc1-c1cc(F)ccc1-c1cccc(-c2nc3cc(CN[C@@H]4CCC[C@@H]4F)cc(C(F)(F)F)c3o2)c1 [CW-5, (1R,2S)-2-Fluoro-N-((2-(4′-fluoro-2′-(4-methyl-4H-1,2,4-triazol-3-yl)-[1,1′-biphenyl]-3-yl)-7-(trifluoromethyl)benzo[d]oxazol-5-yl)methyl)cyclopentan-1-amine] | < 0.2 µM | < 0.2 µM | < 0.2 µM
4 | Cn1cnnc1-c1cc(F)ccc1-c1cccc(-c2nc3cc(CNCC4(C#N)CCCC4)cc(C(F)(F)F)c3o2)c1 [CX-1, 1-((((2-(4′-Fluoro-2′-(4-methyl-4H-1,2,4-triazol-3-yl)-[1,1′-biphenyl]-3-yl)-7-(trifluoromethyl)benzo[d]oxazol-5-yl)methyl)amino)methyl)cyclopentane-1-carbonitrile] | < 0.2 µM | < 0.2 µM | 0.2 to 1 µM
5 | Cn1cnnc1-c1cc(F)ccc1-c1cccc(-c2nc3cc(CN4C(=O)O[C@H]5CCC[C@H]54)cc(C(F)(F)F)c3o2)c1 [CY-1, (3aR,6aS)-3-((2-(4′-Fluoro-2′-(4-methyl-4H-1,2,4-triazol-3-yl)-[1,1′-biphenyl]-3-yl)-7-(trifluoromethyl)benzo[d]oxazol-5-yl)methyl)hexahydro-2H-cyclopenta[d]oxazol-2-one] | 0.2 to 1 µM | < 0.2 µM | 1 to 10 µM
6 | Cn1cnnc1-c1cc(F)ccc1-c1cccc(-c2nc3cc(CNCC(O)(C(F)(F)F)C(F)(F)F)cc(C(F)(F)F)c3o2)c1 [CZ-2, 1,1,1,3,3,3-Hexafluoro-2-((((2-(4′-fluoro-2′-(4-methyl-4H-1,2,4-triazol-3-yl)-[1,1′-biphenyl]-3-yl)-7-(trifluoromethyl)benzo[d]oxazol-5-yl)methyl)amino)methyl)propan-2-ol] | < 0.2 µM | < 0.2 µM | 0.2 to 1 µM
7 | Cn1cnnc1-c1cc(F)ccc1-c1cccc(-c2nc3cc(CNCC(C)(C)F)cc(C(F)(F)F)c3o2)c1 [DA-1, 2-Fluoro-N-((2-(4′-fluoro-2′-(4-methyl-4H-1,2,4-triazol-3-yl)-[1,1′-biphenyl]-3-yl)-7-(trifluoromethyl)benzo[d]oxazol-5-yl)methyl)-2-methylpropan-1-amine] | < 0.2 µM | < 0.2 µM | < 0.2 µM
8 | CON(C)C(=O)c1cc(C(F)(F)F)c2oc(-c3cccc(-c4ccc(F)cc4-c4nncn4C)c3)nc2c1 [DJ-2, 2-(4′-Fluoro-2′-(4-methyl-4H-1,2,4-triazol-3-yl)-[1,1′-biphenyl]-3-yl)-N-methoxy-N-methyl-7-(trifluoromethyl)benzo[d]oxazole-5-carboxamide] | 0.2 to 1 µM | < 0.2 µM | 1 to 10 µM

The remaining lines, values ahead:

Row | IC50 [1] | IC50 [2] | EC50 [3] | SMILES
9 | 0.2 to 1 µM | < 0.2 µM | 1 to 10 µM | Cn1cnnc1-c1cc(F)ccc1-c1cccc(-c2nc3ccc(CN[C@@H]4CCC[C@@H]4O)cc3o2)c1 [DD-2, (1S,2R)-2-(((2-(4′-Fluoro-2′-(4-methyl-4H-1,2,4-triazol-3-yl)-[1,1′-biphenyl]-3-yl)benzo[d]oxazol-6-yl)methyl)amino)cyclopentan-1-ol]
10 | < 0.2 µM | < 0.2 µM | 0.2 to 1 µM | COC1(CNCc2cc(C(F)(F)F)c3oc(-c4cccc(-c5ccc(F)cc5-c5nncn5C)c4)nc3c2)CCC1 [DE-2, 1-(2-(4′-Fluoro-2′-(4-methyl-4H-1,2,4-triazol-3-yl)-[1,1′-biphenyl]-3-yl)-7-(trifluoromethyl)benzo[d]oxazol-5-yl)-N-((1-methoxycyclobutyl)methyl)methanamine]
11 | < 0.2 µM | < 0.2 µM | < 0.2 µM | Cn1cnnc1-c1cc(F)ccc1-c1cccc(-c2nc3cc(CN[C@@H]4CCCC[C@@H]4O)cc(C(F)(F)F)c3o2)c1 [DF-2, (1S,2R)-2-(((2-(4′-Fluoro-2′-(4-methyl-4H-1,2,4-triazol-3-yl)-[1,1′-biphenyl]-3-yl)-7-(trifluoromethyl)benzo[d]oxazol-5-yl)methyl)amino)cyclohexan-1-ol]
12 | < 0.2 µM | < 0.2 µM | < 0.2 µM | CC[C@H](O)CNCc1cc(C(F)(F)F)c2oc(-c3cccc(-c4ccc(F)cc4-c4nncn4C)c3)nc2c1 [DG-2, (S)-1-(((2-(4′-Fluoro-2′-(4-methyl-4H-1,2,4-triazol-3-yl)-[1,1′-biphenyl]-3-yl)-7-(trifluoromethyl)benzo[d]oxazol-5-yl)methyl)amino)butan-2-ol]
13 | < 0.2 µM | < 0.2 µM | < 0.2 µM | Cn1cnnc1-c1cc(F)ccc1-c1cccc(-c2nc3cc(CN[C@@H]4COC[C@@H]4O)cc(C(F)(F)F)c3o2)c1 [DH-2, (3R,4R)-4-(((2-(4′-Fluoro-2′-(4-methyl-4H-1,2,4-triazol-3-yl)-[1,1′-biphenyl]-3-yl)-7-(trifluoromethyl)benzo[d]oxazol-5-yl)methyl)amino)tetrahydrofuran-3-ol]
14 | 1 to 10 µM | < 0.2 µM | 10 to 50 µM | Cn1cnnc1-c1cc(F)ccc1-c1cccc(-c2nc3cc(C(=O)NO)cc(C(F)(F)F)c3o2)c1 [DI-1, 2-(4′-Fluoro-2′-(4-methyl-4H-1,2,4-triazol-3-yl)-[1,1′-biphenyl]-3-yl)-N-hydroxy-7-(trifluoromethyl)benzo[d]oxazole-5-carboxamide]
15 | < 0.2 µM | < 0.2 µM | < 0.2 µM | Cn1cnnc1-c1cc(F)ccc1-c1cccc(-c2nc3cc(CNC[C@H](O)C(F)(F)F)cc(C(F)(F)F)c3o2)c1 [DM-2, (S)-1,1,1-Trifluoro-3-(((2-(4′-fluoro-2′-(4-methyl-4H-1,2,4-triazol-3-yl)-[1,1′-biphenyl]-3-yl)-7-(trifluoromethyl)benzo[d]oxazol-5-yl)methyl)amino)propan-2-ol]
16 | < 0.2 µM | < 0.2 µM | 0.2 to 1 µM | Cn1cnnc1-c1cc(F)ccc1-c1cccc(-c2nc3cc(CNCC(C)(C)C#N)cc(C(F)(F)F)c3o2)c1 [DN-2, 3-(((2-(4′-fluoro-2′-(4-methyl-4H-1,2,4-triazol-3-yl)-[1,1′-biphenyl]-3-yl)-7-(trifluoromethyl)benzo[d]oxazol-5-yl)methyl)amino)-2,2-dimethylpropanenitrile]
17 | < 0.2 µM | < 0.2 µM | 0.2 to 1 µM | Cn1cnnc1-c1cc(F)ccc1-c1cccc(-c2nc3cc(CN[C@@H]4CCC[C@@]4(C)O)cc(C(F)(F)F)c3o2)c1 [DP-5, (1R,2R)-2-(((2-(4′-Fluoro-2′-(4-methyl-4H-1,2,4-triazol-3-yl)-[1,1′-biphenyl]-3-yl)-7-(trifluoromethyl)benzo[d]oxazol-5-yl)methyl)amino)-1-methylcyclopentan-1-ol]
18 | < 0.2 µM | < 0.2 µM | < 0.2 µM | Cn1cnnc1-c1cc(F)ccc1-c1cccc(-c2nc3cc(CN[C@@H]4CCC[C@]4(C)O)cc(C(F)(F)F)c3o2)c1 [DP-6, (1S,2R)-2-(((2-(4′-Fluoro-2′-(4-methyl-4H-1,2,4-triazol-3-yl)-[1,1′-biphenyl]-3-yl)-7-(trifluoromethyl)benzo[d]oxazol-5-yl)methyl)amino)-1-methylcyclopentan-1-ol]
19 | < 0.2 µM | < 0.2 µM | < 0.2 µM | Cn1cnnc1-c1cc(F)ccc1-c1cccc(-c2nc3cc(CNCC4(O)CCC4)ccc3o2)c1 [DQ-1, 1-((((2-(4′-Fluoro-2′-(4-methyl-4H-1,2,4-triazol-3-yl)-[1,1′-biphenyl]-3-yl)benzo[d]oxazol-5-yl)methyl)amino)methyl)cyclobutan-1-ol]
20 | < 0.2 µM | < 0.2 µM | 0.2 to 1 µM | Cn1cnnc1-c1cc(F)ccc1-c1cccc(-c2nc3cc(CN4CC[C@@H](C#N)C4)cc(C(F)(F)F)c3o2)c1 [DR-2, (R)-1-((2-(4′-Fluoro-2′-(4-methyl-4H-1,2,4-triazol-3-yl)-[1,1′-biphenyl]-3-yl)-7-(trifluoromethyl)benzo[d]oxazol-5-yl)methyl)pyrrolidine-3-carbonitrile]
21 | < 0.2 µM | < 0.2 µM | < 0.2 µM | Cn1cnnc1-c1cc(F)ccc1-c1cccc(-c2nc3cc(CNC4CCCC4)cc(C(F)(F)F)c3o2)c1 [DS-2, N-((2-(4′-Fluoro-2′-(4-methyl-4H-1,2,4-triazol-3-yl)-[1,1′-biphenyl]-3-yl)-7-(trifluoromethyl)benzo[d]oxazol-5-yl)methyl)cyclopentanamine]
